Blank lines part the entries; values can stand above or below the compound they belong to.
Tests used:
Type in all cases: biochemical
[1] = biological target: T1, alkaline phosphatase from bovine intestine (Bos taurus, UniProt P19111); test: AP fluorometric assay; conditions: for Hill coefficient / kcat / Km / Vmax: hydrolysis of DiFMUP by AP; for Km / Vmax / IC50 / apparent AP Vmax: ± 95% confidence interval; for IC50: 60 min; for apparent AP Vmax: substrate DiFMUP
Target sequence in this assay (P19111 20-506 limits assumed): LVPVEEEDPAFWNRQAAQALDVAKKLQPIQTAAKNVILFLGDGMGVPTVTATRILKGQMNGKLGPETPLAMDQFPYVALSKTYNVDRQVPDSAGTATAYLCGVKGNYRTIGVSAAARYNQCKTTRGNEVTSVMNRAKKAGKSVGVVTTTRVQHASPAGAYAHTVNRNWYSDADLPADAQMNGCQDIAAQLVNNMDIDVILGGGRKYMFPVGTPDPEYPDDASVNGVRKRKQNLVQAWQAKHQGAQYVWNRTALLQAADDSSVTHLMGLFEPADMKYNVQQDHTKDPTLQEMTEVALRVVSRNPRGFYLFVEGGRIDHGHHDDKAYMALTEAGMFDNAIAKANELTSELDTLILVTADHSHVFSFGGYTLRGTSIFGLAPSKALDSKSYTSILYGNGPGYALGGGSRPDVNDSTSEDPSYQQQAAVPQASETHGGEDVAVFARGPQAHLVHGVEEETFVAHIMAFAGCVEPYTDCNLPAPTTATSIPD

[2] = biological target: T1, alkaline phosphatase from bovine intestine; test: AP colorimetric assay; conditions: detergent at two concentrations above its critical micelle concentration
Target sequence in this assay (P19111 20-533): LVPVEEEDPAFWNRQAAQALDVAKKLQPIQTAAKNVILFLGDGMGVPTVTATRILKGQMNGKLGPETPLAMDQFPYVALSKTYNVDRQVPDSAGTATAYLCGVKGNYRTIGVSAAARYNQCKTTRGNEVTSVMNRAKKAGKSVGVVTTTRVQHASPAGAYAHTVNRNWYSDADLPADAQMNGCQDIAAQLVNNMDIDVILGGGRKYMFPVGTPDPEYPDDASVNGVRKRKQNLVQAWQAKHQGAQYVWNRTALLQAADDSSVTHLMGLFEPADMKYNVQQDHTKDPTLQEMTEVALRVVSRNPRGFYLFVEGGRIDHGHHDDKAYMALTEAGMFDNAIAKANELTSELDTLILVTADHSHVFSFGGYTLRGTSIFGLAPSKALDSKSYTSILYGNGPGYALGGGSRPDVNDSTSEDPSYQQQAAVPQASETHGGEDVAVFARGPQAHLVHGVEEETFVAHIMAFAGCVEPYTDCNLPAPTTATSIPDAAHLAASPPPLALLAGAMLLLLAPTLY

[3] = tested on: alkaline phosphatase from bovine intestine; test: Reversibility test by rapid dilution of the enzyme-inhibitor complex

decrease in reaction velocity ([1]; DMSO concentrations up to 1.5%): less than 10%
Compound: C[S+](C)[O-] [DMSO]

increase in AP activity [2]: up to 40%
Compound: C[C@H](CCC(=O)NCCC[N+](C)(C)CCCS(=O)(=O)[O-])[C@H]1CC[C@H]2[C@@H]3[C@H](O)C[C@@H]4C[C@H](O)CC[C@]4(C)[C@H]3C[C@H](O)[C@]12C [CHAPS]

Hill coefficient ([1]; pH 6.5, 37 °C): 1
kcat ([1]; pH 6.5, 37 °C): 37 s⁻¹
Km ([1]; pH 6.5, 37 °C): 0.2 ± 0.04 µM
Vmax ([1]; pH 6.5, 37 °C): 32 ± 2 µmol/min/mg
Hill coefficient ([1]; pH 7.0, 37 °C): 1
kcat ([1]; pH 7.0, 37 °C): 82 s⁻¹
Km ([1]; pH 7.0, 37 °C): 0.5 ± 0.04 µM
Vmax ([1]; pH 7.0, 37 °C): 71 ± 3 µmol/min/mg
Hill coefficient ([1]; pH 7.5, 37 °C): 1
kcat ([1]; pH 7.5, 37 °C): 147 s⁻¹
Km ([1]; pH 7.5, 37 °C): 1.4 ± 0.2 µM
Vmax ([1]; pH 7.5, 37 °C): 126 ± 3 µmol/min/mg
Hill coefficient ([1]; pH 8.0, 37 °C): 1
kcat ([1]; pH 8.0, 37 °C): 211 s⁻¹
Km ([1]; pH 8.0, 37 °C): 2.8 ± 0.1 µM
Vmax ([1]; pH 8.0, 37 °C): 181 ± 1 µmol/min/mg
Compound: Cc1cc(=O)oc2c(F)c(OP(=O)(O)O)c(F)cc12 [DiFMUP, 6,8-difluoro-4-methylumbelliferyl phosphate]

IC50 ([1]; 0.025 μM DiFMUP, pH 6.5, 37 °C): 1000 ± 400 nM
IC50 ([1]; 0.050 μM DiFMUP, pH 6.5, 37 °C): 1500 ± 400 nM
IC50 ([1]; 0.100 μM DiFMUP, pH 6.5, 37 °C): 1600 ± 300 nM
IC50 ([1]; 0.200 μM DiFMUP, pH 6.5, 37 °C): 2300 ± 400 nM
IC50 ([1]; 0.400 μM DiFMUP, pH 6.5, 37 °C): 4000 ± 400 nM
IC50 ([1]; 0.800 μM DiFMUP, pH 6.5, 37 °C): 6100 ± 900 nM
IC50 ([1]; 1.600 μM DiFMUP, pH 6.5, 37 °C): 11000 ± 3000 nM
mode of inhibition ([1]; IC50 rises with DiFMUP concentration, apparent KM but not Vmax rises): competitive
apparent AP Vmax ([1]; Na3VO4 0.084 μM): 567 ± 18 RFU min^−1
apparent AP Vmax ([1]; Na3VO4 0.250 μM): 561 ± 35 RFU min^−1
apparent AP Vmax ([1]; Na3VO4 0.760 μM): 566 ± 24 RFU min^−1
apparent AP Vmax ([1]; Na3VO4 2.28 μM): 546 ± 32 RFU min^−1
apparent AP Vmax ([1]; Na3VO4 6.68 μM): 513 ± 53 RFU min^−1
reversibility of inhibition [3]: rapidly reversible
Compound: [Na+].[Na+].[Na+].[O]=[V]([O-])([O-])[O-] [Na3VO4, sodium orthovanadate]

increase in AP activity [2]: up to 40%
Compound: Tween 20

increase in AP activity [2]: up to 40%
Compound: Triton X-100

Reference: paper PMC4822204 (Biomolecular Detection and Quantification, 2015)
